Here are results for 3 molecules from patent US20120134974A1, “METHODS FOR REMOVING PLASMA” (BIOVEC TRANSFUSION, LLC, priority 2010, published 2012).

One assay deals with platelets. Put plainly: thromboelastography (TEG) of platelet concentrate. It is filed as cell-based. The note with it: 2.4 mg Argatroban in 350 ml of platelets; straight line on the thromboelastogram. As for the experimental part: In one experiment, platelet concentrates obtained by the buffy coat method were used for the study. Integrilin (Eptifibatide), a GPIIb/IIIa inhibitor, and Argabotran, a synthetic thrombin inhibitor, were added to platelet units at three times the therapeutic concentrations (i.e., 48 micrograms of Integrilin and 2.4 mg of Argatroban in 350 ml of platelets). Removal of the inhibitors was initiated by diafiltration. 15 ml of the platelet concentrate was diafiltered against 60 ml of a solution containing 20% fresh frozen plasma in a commercially used platelet storage solution (T-Sol). The samples were stored overnight and platelet functionality was measured on Day 2, by Thromboelastography (TEG) and using standard agonists such as TRAP and collagen.
In another experiment, Integrilin and Argabotran were added to platelet units at three times the therapeutic loading concentrations (i.e., 48 micrograms for Integrilin and 2.4 mg for Argatroban in 350 ml of platelets). Prior to the addition of the inhibitors, baseline data of platelet functionality was obtained. These baseline data included thromboelastography, which assesses overall platelet function and clot strength, as well as the TRAP test and the collagen test, which are additional markers of platelet functionality. […]

For a further assay, the target named is factor Xa (Homo sapiens, UniProt P00742). The note with it: cited from earlier work.
factor Xa, sequence (P00742 235-488 limits assumed): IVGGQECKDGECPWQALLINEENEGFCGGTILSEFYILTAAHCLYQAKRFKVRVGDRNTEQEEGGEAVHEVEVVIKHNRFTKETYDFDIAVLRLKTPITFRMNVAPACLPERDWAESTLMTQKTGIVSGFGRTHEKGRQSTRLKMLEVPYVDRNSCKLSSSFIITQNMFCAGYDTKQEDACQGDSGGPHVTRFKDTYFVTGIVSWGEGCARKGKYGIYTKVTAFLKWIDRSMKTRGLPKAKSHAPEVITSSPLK
factor Xa, sequence (P00742 41-179 partner limits assumed): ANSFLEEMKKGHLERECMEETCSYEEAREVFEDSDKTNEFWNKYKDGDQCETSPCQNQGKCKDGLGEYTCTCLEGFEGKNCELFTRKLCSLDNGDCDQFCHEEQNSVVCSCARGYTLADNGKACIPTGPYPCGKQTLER
The next assay relates to PT and αPTT. The note with it: more sensitive to the αPTT; cited from earlier work.

Regarding `CC1CNc2c(cccc2S(=O)(=O)N[C@@H](CCCNC(=N)N)C(=O)N2CC[C@@H](C)C[C@@H]2C(=O)O)C1` (stereo partly shown) [Argatroban], the “effect on activation of platelets on the thromboelastogram” value in the assay on platelets was “completely blocks the activation of platelets”.
Regarding `CC(=N)N1CC[C@H](Oc2ccc([C@H](Cc3ccc4ccc(C(=N)N)cc4c3)C(=O)O)cc2)C1` [DX-9065a], the “mode of factor Xa inhibition” value at factor Xa is “competitive manner”.
For `COc1ccc2ccc(S(=O)(=O)N(C)[C@H]3CCN(Cc4csc(C(=N)N)c4)C3=O)cc2c1` [RPR-120844], on factor Xa, the “mode of factor Xa inhibition” value was “fast binding, reversible and competitive inhibitor”. For the same molecule, the “effect on PT and αPTT” value in the assay with PT and αPTT was “prolongs the PT and αPTT in a concentration-dependent manner”.
